# Measured values from ChEMBL document CHEMBL1833928, “Metabolism evaluation of the anticancer candidate AC04 by biomimetic oxidative model and rat liver microsomes” (Eur J Med Chem, 2011).
# Key:
# Plasma = assay: Drug metabolism in Wistar rat plasma assessed as 1-oxo-AC04 at 1.5 mg/kg, iv administered as single dose after 120 hrs by LC-MS/MS analysis; assay type: ADME, organism-based; parameters: dose 1.5 mg/kg, route intravenous; settings: in vivo
# CCRF S-180 = assay: Antitumor activity against mouse S180 cells xenografted in mouse assessed as reduction of tumor weight at 100 umol/kg/day, ip administered after 48 hrs of tumor inoculation qd for 8 days; assay type: functional; parameters: scale not given: the % may be the effect or the level left
# Liver microsomes = assay: Drug metabolism in Wistar rat liver microsomes assessed as 1-oxo-AC04 after 60 mins by LC-MS/MS analysis; assay type: ADME, Microsome; settings: 1 h
compound,measurement,setting,value
Cc1ccc(CN2C(=O)S/C(=C\c3c4ccccc4nc4ccccc34)C2=O)cc1,Drug metabolism,Plasma,Active
same,Activity,CCRF S-180,85%
same,Drug metabolism,Liver microsomes,Active
